Data reported in paper PMC12494798, “Anle138b binds predominantly to the central cavity in lipidic Aβ₄₀ fibrils and modulates fibril formation” (Nature Communications, 2025).

Biological target: T1, Aβ₄₀ (L1 lipidic Aβ₄₀ fibril, amyloid beta 1-40) (Homo sapiens, UniProt P05067)
T1 construct: gene APP; Aβ(1-40), type 1 lipidic (L1) fibril of two protofilaments
Test: ITC on preformed L1 fibrils; supported by DNP-enhanced NHHC ssNMR contacts, (H)CANH titration and cryo-EM density
Type: binding

T1 sequence (P05067 672-711): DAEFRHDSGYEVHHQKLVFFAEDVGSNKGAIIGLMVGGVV

- Kd: 0.64 µM
SMILES: Brc1cccc(-c2cc(-c3ccc4c(c3)OCO4)n[nH]2)c1 [anle138b, 3-(1,3-benzodioxol-5-yl)−5-(3-bromophenyl)−1H-pyrazole]
